Test results taken from patent US20100022559A1, “BISOXIMES AS FUNGICIDES” (BAYER CROPSCIENCE AG, priority 2006, published 2010).

Test: logP determination by HPLC on a reversed-phase column (C 18), EEC Directive 79/831 Annex V.A8
Format: physicochemical
Protocol: The stated logP values were determined in accordance with EEC Directive 79/831 Annex V.A8 by HPLC (high performance liquid chromatography) on a reversed-phase column (C 18). Temperature: 43° C.

[1] = method marker [b], isomer A / isomer B / isomer mixture as noted in the cell
[2] = method marker [a] (footnote not shown), isomer A / isomer B / isomer mixture as noted in the cell

Compound: CCC(CON=C(C)c1nc(C)ccc1C)CON=C(C)c1nc(C)ccc1C (single isomer, unassigned) [compound 750]
- logP (method marked [b] in Table 1): 2.57^[b]
- logP (method marked [c] in Table 1): 4.46^[c]

Compound: C=C(CON=C(C)c1cccc(C)n1)CON=C(N)c1nc(C)cc(OC)n1 [Compound 186]
- logP [1]: 2.11^[b]

Compound: CC(=NOCC(C)(C)CO/N=C(\C)c1cccc(C)n1)c1cc(C)cc(C)n1 [(1E/Z)-1-(4,6-dimethylpyridin-2-yl)ethanone O-[2,2-dimethyl-3-({[(1E)-1-(6-methylpyridin-2-yl)ethylidene]amino}oxy)propyl]oxime]
- chromatographic logP (reversed-phase HPLC column (C 18), HCO2H, HPLC reversed-phase column (C 18), 43° C., read-out: logP (HCO2H)): 3.33

Compound: CCOC(=O)C(=NOCCCON=C(C(=O)OCC)c1cccc(C)n1)c1cccc(C)n1 [compound 76]
- logP [2]: 4.31^[a]

Compound: Cc1cc(C)nc(C(N)=NOC/C=C/CON=C(N)c2nc(C)cc(C)n2)n1 [Compound 772]
- logP (value marked [b]): 1.62^[b]

Compound: Cc1cccc(C=NOCc2ccc(CON=Cc3cccc(C)n3)cc2)n1 [compound 735]
- logP (method marked [b] in Table 1): 2.80^[b]

Compound: CCC1=NOC(CON=C(C)c2cccc(C)n2)(CON=C(C)c2cccc(C)n2)C1 (stereo not shown) [compound 594]
- logP (method marked [a] in Table 1): 2.68^[a]

Compound: C=C(CON=C(C)c1nc(C)cc(OC)n1)CON=C(C)c1nc(C)cc(OC)n1 [compound 64]
- logP [1]: 3.17^[b]

Compound: CC(=NOCCCON=C(C)c1cccc(C(C)C)n1)c1cccc(C(C)C)n1 [compound 230]
- logP [2]: 7.36^[a]

Compound: C=C(CON=C(N)c1cc(Cl)cc(Cl)c1)CON=C(C)c1cccc(C)n1 [compound 190]
- logP [1]: 4.32^[b]

Compound: C=C(CON=C(C)c1cccs1)CON=C(C)c1cccs1 (single isomer, unassigned) [compound 77]
- logP [1]: 4.84^[b] (isomer B)

Compound: CC(=NOCCCCCCON=C(C)c1cccc(C)n1)c1ccc(Cl)cc1 [compound 458]
- logP (value marked [b]): 6.58^[b]

Compound: COC(CON=C(C)c1cccc(C)n1)CON=C(C)c1cccc(C)n1 (stereo not shown) [Compound 294]
- logP (value marked [b]): 2.22^[b]

Compound: CC(=NOCCCCCCON=C(C)c1cccc(C)n1)c1ccccn1 [compound 388]
- logP (value marked [b]): 4.41^[b]

Compound: CC(=NOCC(C)(C)CON=C(C)c1cccc(C)n1)c1cc(C)ccn1 [compound 409]
- logP (value marked [b]): 3.65^[b]

Compound: CCC1=NOC(CON=C(CC)c2ccc(C)cn2)(CON=C(CC)c2cccc(C)n2)C1 (racemic) [compound 607]
- logP (method marked [b] in Table 1): 4.04^[b]

Compound: COc1cccc(C(C)=NOCC(C)CON=C(C)c2cccc(C)n2)c1 (stereo not shown) [Compound 495]
- logP (value marked [b]): 4.80^[b]

Compound: CC(=NOCC(C)CON=C(C)c1nc(C)ccc1C)c1nc(C)ccc1C (single isomer, unassigned) [compound 268]
- logP (value marked [b]): 2.08^[b] (isomer A)

Compound: C=C(CON=C(C)c1cccc(C)n1)CON=C(c1cccc(C)n1)C(C)C (single isomer, unassigned) [Compound 672]
- logP (method marked [b] in Table 1): 3.87^[b] (isomer A)

Compound: CC(=NOCC(C)CON=C(C)c1ccc(Cl)s1)c1cccc(C)n1 (stereo not shown) [compound 498]
- logP (value marked [b]): 5.36^[b]

Compound: CC(=NOCCCCON=C(CC(C)C)c1cccc(C)n1)c1cccc(C)n1 (single isomer, unassigned) [compound 331]
- logP (value marked [b]): 5.46^[b] (isomer A)

Compound: CC(=NOCCCON=C(C)c1cccc(Br)n1)c1cccc(Br)n1 [compound 80]
- logP [2]: 5.99^[a]

Compound: CC(=NOCC(CON=C(C)c1nc(C)ccc1C)c1ccccc1)c1nc(C)ccc1C (single isomer, unassigned) [compound 755]
- logP (method marked [b] in Table 1): 3.62^[b]
- logP (method marked [c] in Table 1): 5.45^[c]

Compound: CC(=NOCC(C)(C)CON=C(C)c1cc(C2CC2)cc(C)n1)c1cccc(C)n1 [Compound 818]
- logP (value marked [a]): 3.80^[a]
- logP (value marked [c]): 6.57^[c]

Compound: CCC(CON=C(C)c1ccc(C)c(C)n1)CON=C(C)c1ccc(C)c(C)n1 (stereo not shown) [Compound 678]
- logP (method marked [b] in Table 1): 3.89^[b]
- logP (method marked [c] in Table 1): 6.79^[c]

Compound: C=C(CON=C(C)c1cccc(C)n1)CON=C(C)c1ccc(Cl)s1 (single isomer, unassigned) [compound 473]
- logP (value marked [b]): 4.91^[b] (isomer B)

Compound: CC(=NOCCCON=C(C)c1cc(C)n(C)n1)c1cc(C)n(C)n1 [compound 259]
- logP (value marked [a]): 2.70^[a]

Compound: C/C(=N\OCC1(CON)CC1)c1cc(C)cc(C)n1 [XII-12]
- logP ([a] acidic range, pH 2.3, 0.1% aqueous phosphoric acid and acetonitrile): 0.61^[a]
- logP ([b] LC-MS, acidic range, pH 2.7, 0.1% aqueous formic acid and acetonitrile): 0.61^[b]
- logP ([c] LC-MS, neutral range, pH 7.8, 0.001 molar aqueous ammonium bicarbonate solution and acetonitrile): 2.42^[c]

Compound: CC(=NOCCC(C)CCON=C(C)c1cccc(C)n1)c1cccc(C)n1 (stereo not shown) [Compound 75]
- logP [1]: 4.38^[b]

Compound: C#CCOc1ccc(C(C)=NOCC(C)CON=C(C)c2ccc(OCC#C)c(C)n2)nc1C (stereo not shown) [Compound 867]
- logP (value marked [b]): 5.33^[b]
- logP (value marked [c]): 5.44^[c]

Compound: Cc1cc(C)nc(/C(N)=N/OCc2ccc(CO/N=C(\N)c3cc(C)cc(C)n3)cc2)c1 [compound 733]
- logP (method marked [b] in Table 1): 3,59^[b]

Compound: Cc1cccnc1C(Cc1ccccc1)=NOCC(C)CON=C(Cc1ccccc1)c1ncccc1C (single isomer, unassigned) [compound 108]
- logP [2]: 5.32^[a] (isomer A)

Compound: C=C(CON=C(C)c1nc(C)ccc1OC)CON=C(C)c1nc(C)ccc1OC [Compound 283]
- logP (value marked [b]): 2.05^[b]

Compound: C=C(CON=C(C)c1cccc(C)n1)CON=C(CCC)c1ncccc1C (single isomer, unassigned) [compound 534]
- logP (value marked [b]): 3.65^[b] (isomer A)

Compound: CC(=NOCC1(CON=C(C)c2nc(C)ccc2C)CCC1)c1nc(C)ccc1C (single isomer, unassigned) [compound 760]
- logP (method marked [c] in Table 1): 4.72^[c]
- logP (value marked [b]): 2.72^[b]

Compound: C=C(CON=C(C)c1cccc(C)n1)CON=C(C)c1c(C)noc1C [compound 198]
- logP [1]: 3.50^[b]

Compound: CC(=NOCc1cccc(CON=C(C)c2ccccn2)c1)c1ccccn1 [compound 731]
- logP (method marked [b] in Table 1): 3.72^[b]

Compound: C=C(CON=C(C)c1cccc(C)n1)CON=C(N)c1nc(C)cs1 [compound 193]
- logP [1]: 2.70^b]

Compound: CC(=NOCCCCCCON=C(C)c1cccc(C)n1)c1cccc(C)n1 [Compound 73]
- logP [1]: 4.47^[b]

Compound: Cc1cccc(C(=NOCC2(CON=C(c3cccc(C)n3)C3CC3)CC(c3ccccc3Cl)=NO2)C2CC2)n1 (stereo not shown) [compound 648]
- logP (method marked [a] in Table 1): 4.46^[a]

Compound: CC(=NOCC(CON=C(C)c1ccc(C)c(C)n1)Cc1ccccc1)c1ccc(C)c(C)n1 (stereo not shown) [Compound 581]
- logP (method marked [b] in Table 1): 5.01^[b]
- logP (method marked [c] in Table 1): 7.05^[c]

Compound: C=C(CON=C(C)c1cccc(C)n1)CON=C(Cc1ccccc1)c1ncccc1C [compound 349]
- logP (value marked [b]): 4.82^[b]

Compound: CC(=NOCC(C)(C)CON=C(c1ccccc1)c1cccc(C)n1)c1cccc(C)n1 [Compound 371]
- logP (value marked [b]): 4.51^[b]

Compound: CCC(=NOCC(C)CON=C(CC)c1cccc(CC)n1)c1cccc(CC)n1 (mixture of isomers) [compound 263]
- logP (value marked [b]): 6.33^[b]

Compound: CCC(=NOCC(C)(C)CON=C(CC)c1cc(C)cc(C)n1)c1cc(C)cc(C)n1 (mixture of isomers) [Compound 571]
- logP (method marked [a] in Table 1): 3.92^[a]

Compound: Cc1cccc(C=NOCC=CCON=Cc2cccc(C)n2)n1 [compound 737]
- logP (method marked [b] in Table 1): 2.18^[b]

Compound: C=C(CON=C(C)c1cccc(C)n1)CON=C(N)c1ncc(Cl)cc1Cl [compound 246]
- logP [1]: 3.00^[b]

Compound: C=C(CON=C(C)c1cccc(C)n1)CON=C(C)c1cccc(C)n1 [Compound 9]
- logP [1]: 3.33^[b]

Compound: CC(=NOCC(C)(O)CON=C(C)c1cccc(C)n1)c1cccc(C)n1 (stereo not shown) [Compound 12]
- logP [2]: 1.66^[a]

Compound: CC(=NOCC(=O)ON=C(C)c1cccc(C)n1)c1cccc(C)n1 [compound 158]
- logP [2]: 2.50^[a]
- logP [1]: 2.57^b]

Compound: C=C(CON=C(C)c1csc(C)n1)CON=C(C)c1csc(C)n1 [compound 522]
- logP (value marked [a]): 3.22^[a]
- logP (value marked [b]): 3.22^[b]

Compound: CCCC(=NOCC1(CON=C(CCC)c2cccc(C)n2)CC(C(C)(C)C)=NO1)c1cccc(C)n1 (stereo not shown) [compound 620]
- logP (method marked [b] in Table 1): 6.22^[b]

Compound: CC(=NOCC(C)CON=C(C)c1cccc(C(F)(F)F)n1)c1cccc(C(F)(F)F)n1 (stereo not shown) [Compound 169]
- logP [2]: 6.41^[a]

Compound: C=C(CON=C(C)c1ncc(C(F)(F)F)cc1Cl)CON=C(C)c1ncc(C(F)(F)F)cc1Cl [compound 149]
- logP [1]: 5.82^[b]

Compound: C=C(CON=C(C)c1ccnc(C)c1)CON=C(C)c1cccc(C)n1 (single isomer, unassigned) [compound 362]
- logP (value marked [b]): 1.71^[b] (isomer B)

Compound: CC(=NOC[C@@H]1O[C@H]1CON=C(C)c1cccc(C)n1)c1cccc(C)n1 [compound 285]
- logP (value marked [b]): 2.17^[b]

Compound: CCOC(=O)C(C)(CON=C(C)c1cccc(C)n1)CON=C(C)c1cccc(C)n1 (stereo not shown) [compound 853]
- logP (value marked [b]): 4.06^[b]
- logP (value marked [c]): 5.00^[c]

Compound: CC(=NOCC(CON=C(C)c1ccc(C)c(C)n1)c1ccccc1)c1ccc(C)c(C)n1 (stereo not shown) [Compound 318]
- logP (value marked [b]): 4.02^[b]
- logP (value marked [c]): 6.45^[c]

Compound: CC(=NOCC(C)CON=C(C)c1ccc(C)cn1)c1ccc(C)cn1 (stereo not shown) [compound 133]
- logP [2]: 3.67^a]

Compound: CC(=NOCC1(CON=C(C)c2cccc(C)n2)CC(c2ccc(Cl)cc2)=NO1)c1cccc(C)n1 (stereo not shown) [compound 601]
- logP (method marked [b] in Table 1): 4.67^[b]

Compound: CCCC(=NOCC1(CON=C(CCC)c2cccc(C)n2)CC(c2ccccc2Cl)=NO1)c1cccc(C)n1 (stereo not shown) [compound 623]
- logP (method marked [b] in Table 1): 6.51^[b]

Compound: CC(=NOCC1(CON=C(C)c2cc(C)cc(C)n2)CCCCC1)c1cc(C)cc(C)n1 [Compound 553]
- logP (method marked [b] in Table 1): 3.87^[b]
- logP (method marked [c] in Table 1): 7.36^[c]

Compound: N/C(=N\OCc1ccccc1CO/N=C(\N)c1nc(C2CC2)cc(C2CC2)n1)c1nc(C2CC2)cc(C2CC2)n1 [compound 711]
- logP (method marked [b] in Table 1): 3.85^[b]

Compound: CC(=NOCCCCCCON=C(C)c1cccc(C)n1)c1cnccn1 [compound 513]
- logP (value marked [b]): 4.25^[b]

Compound: CC(=NOCC(C)CON=C(C)c1cccc(C)n1)c1ccccc1 (stereo not shown) [compound 439]
- logP (value marked [b]): 4.91^[b]

Compound: CC(=NOCC(C)(C)CON=C(C)c1cccc(C)n1)c1ccc2c(c1)CC(C)O2 (stereo not shown) [compound 482]
- logP (value marked [b]): 5.65^[b]

Compound: CC(=NOCC(CON=C(C)c1nc(C)ccc1C)C(C)(C)C)c1nc(C)ccc1C (single isomer, unassigned) [compound 756]
- logP (method marked [b] in Table 1): 3.22^[b]
- logP (method marked [c] in Table 1): 5.20^[c]
